Measured values taken from ChEMBL document CHEMBL2331144, “Synthesis and anticancer activity of analogues of phenstatin, with a phenothiazine A-ring, as a new class of microtubule-targeting agents” (Bioorg Med Chem Lett, 2013).

How the values were obtained:
[1] = tested on: M14; assay: Growth inhibition of human M14 cells after 48 hrs by sulforhodamine B assay; assay type: functional; conditions: M14, 48 h
[2] = tested on: DU-145; assay: Growth inhibition of human DU145 cells after 48 hrs by sulforhodamine B assay; assay type: functional; conditions: DU-145, 48 h
[3] = tested on: SW-620; assay: Growth inhibition of human SW620 cells after 48 hrs by sulforhodamine B assay; assay type: functional; conditions: SW-620, 48 h
[4] = tested on: CCRF-CEM; assay: Growth inhibition of human CCRF-CEM cells after 48 hrs by sulforhodamine B assay; assay type: functional
[5] = tested on: SNB-75; assay: Growth inhibition of human SNB75 cells after 48 hrs by sulforhodamine B assay; assay type: functional; conditions: SNB-75, 48 h
[6] = tested on: A498; assay: Growth inhibition of human A498 cells after 48 hrs by sulforhodamine B assay; assay type: functional; conditions: A498, 48 h
[7] = tested on: LOX IMVI; assay: Growth inhibition of human LOXIMVI cells after 48 hrs by sulforhodamine B assay; assay type: functional
[8] = tested on: SR; assay: Growth inhibition of human SR cells after 48 hrs by sulforhodamine B assay; assay type: functional
[9] = tested on: COLO 205; assay: Growth inhibition of human COLO205 cells after 48 hrs by sulforhodamine B assay; assay type: functional; conditions: COLO 205, 48 h
[10] = tested on: HL-60(TB); assay: Growth inhibition of human HL-60(TB) cells after 48 hrs by sulforhodamine B assay; assay type: functional; conditions: HL-60, 48 h
[11] = tested on: RXF 393; assay: Growth inhibition of human RXF393 cells after 48 hrs by sulforhodamine B assay; assay type: functional; conditions: RXF 393, 48 h
[12] = tested on: OVCAR-4; assay: Growth inhibition of human OVCAR4 cells after 48 hrs by sulforhodamine B assay; assay type: functional; conditions: OVCAR-4, 48 h
[13] = tested on: SF-268; assay: Growth inhibition of human SF268 cells after 48 hrs by sulforhodamine B assay; assay type: functional; conditions: SF-268, 48 h
[14] = Growth inhibition of human Hs 578T cells after 48 hrs by sulforhodamine B assay; assay type: functional
[15] = tested on: 786-0; assay: Growth inhibition of human 786-0 cells after 48 hrs by sulforhodamine B assay; assay type: functional; conditions: 786-0, 48 h
[16] = tested on: PC-3; assay: Growth inhibition of human PC3 cells after 48 hrs by sulforhodamine B assay; assay type: functional; conditions: PC-3, 48 h
[17] = tested on: MDA-MB-231; assay: Growth inhibition of human MDA-MB-231 cells after 48 hrs by sulforhodamine B assay; assay type: functional; conditions: MDA-MB-231, 48 h
[18] = tested on: OVCAR-8; assay: Growth inhibition of human OVCAR8 cells after 48 hrs by sulforhodamine B assay; assay type: functional; conditions: OVCAR-8, 48 h
[19] = tested on: MOLT-4; assay: Growth inhibition of human MOLT4 cells after 48 hrs by sulforhodamine B assay; assay type: functional; conditions: MOLT-4, 48 h
[20] = tested on: SK-OV-3; assay: Growth inhibition of human SKOV3 cells after 48 hrs by sulforhodamine B assay; assay type: functional; conditions: SK-OV-3, 48 h
[21] = tested on: UO-31; assay: Growth inhibition of human UO31 cells after 48 hrs by sulforhodamine B assay; assay type: functional; conditions: UO-31, 48 h
[22] = tested on: SK-MEL-2; assay: Growth inhibition of human SK-MEL-2 cells after 48 hrs by sulforhodamine B assay; assay type: functional; conditions: SK-MEL-2, 48 h
[23] = tested on: MDA-MB-468; assay: Growth inhibition of human MDA-MB-468 cells after 48 hrs by sulforhodamine B assay; assay type: functional; conditions: MDA-MB-468, 48 h
[24] = tested on: MCF7; assay: Growth inhibition of human MCF7 cells after 48 hrs by sulforhodamine B assay; assay type: functional; conditions: MCF7, 48 h
[25] = tested on: RPMI-8226; assay: Growth inhibition of human RPMI8226 cells after 48 hrs by sulforhodamine B assay; assay type: functional; conditions: RPMI-8226, 48 h
[26] = tested on: NCI-H23; assay: Growth inhibition of human NCI-H23 cells after 48 hrs by sulforhodamine B assay; assay type: functional; conditions: NCI-H23, 48 h
[27] = tested on: T47D; assay: Growth inhibition of human T47D cells after 48 hrs by sulforhodamine B assay; assay type: functional
[28] = tested on: TK-10; assay: Growth inhibition of human TK10 cells after 48 hrs by sulforhodamine B assay; assay type: functional; conditions: TK-10, 48 h
[29] = tested on: SN12C; assay: Growth inhibition of human SN12C cells after 48 hrs by sulforhodamine B assay; assay type: functional
[30] = tested on: KM12; assay: Growth inhibition of human KM12 cells after 48 hrs by sulforhodamine B assay; assay type: functional; conditions: KM12, 48 h
[31] = tested on: HCT-116; assay: Growth inhibition of human HCT116 cells after 48 hrs by sulforhodamine B assay; assay type: functional; conditions: HCT-116, 48 h
[32] = Growth inhibition of human HCC2998 cells after 48 hrs by sulforhodamine B assay; assay type: functional; conditions: HCC 2998, 48 h
[33] = tested on: Malme-3M; assay: Growth inhibition of human MALME-3M cells after 48 hrs by sulforhodamine B assay; assay type: functional
[34] = tested on: MDA-MB-435; assay: Growth inhibition of human MDA-MB-435 cells after 48 hrs by sulforhodamine B assay; assay type: functional; conditions: MDA-MB-435, 48 h
[35] = tested on: OVCAR-5; assay: Growth inhibition of human OVCAR5 cells after 48 hrs by sulforhodamine B assay; assay type: functional; conditions: OVCAR-5, 48 h
[36] = Growth inhibition of human NCI-ADR-RES cells after 48 hrs by sulforhodamine B assay; assay type: functional
[37] = tested on: SK-MEL-5; assay: Growth inhibition of human SK-MEL-5 cells after 48 hrs by sulforhodamine B assay; assay type: functional; conditions: SK-MEL-5, 48 h
[38] = tested on: UACC-62; assay: Growth inhibition of human UACC62 cells after 48 hrs by sulforhodamine B assay; assay type: functional; conditions: UACC-62, 48 h
[39] = tested on: CAKI-1; assay: Growth inhibition of human CAKI-1 cells after 48 hrs by sulforhodamine B assay; assay type: functional; conditions: CAKI-1, 48 h
[40] = tested on: ACHN; assay: Growth inhibition of human ACHN cells after 48 hrs by sulforhodamine B assay; assay type: functional
[41] = organism: Ovis aries; assay: Inhibition of sheep brain tubulin polymerization at 100 uM using DAPI by fluorimetry
[42] = tested on: SF-539; assay: Growth inhibition of human SF539 cells after 48 hrs by sulforhodamine B assay; assay type: functional; conditions: SF-539, 48 h
[43] = tested on: IGROV-1; assay: Growth inhibition of human IGROV1 cells after 48 hrs by sulforhodamine B assay; assay type: functional; conditions: IGROV-1, 48 h
[44] = tested on: OVCAR-3; assay: Growth inhibition of human OVCAR3 cells after 48 hrs by sulforhodamine B assay; assay type: functional; conditions: OVCAR-3, 48 h
[45] = tested on: UACC-257; assay: Growth inhibition of human UACC257 cells after 48 hrs by sulforhodamine B assay; assay type: functional; conditions: UACC-257, 48 h
[46] = tested on: NCI-H522; assay: Growth inhibition of human NCI-H522 cells after 48 hrs by sulforhodamine B assay; assay type: functional; conditions: NCI-H522, 48 h
[47] = tested on: NCI-H460; assay: Growth inhibition of human NCI-H460 cells after 48 hrs by sulforhodamine B assay; assay type: functional; conditions: NCI-H460, 48 h
[48] = tested on: HT-29; assay: Growth inhibition of human HT-29 cells after 48 hrs by sulforhodamine B assay; assay type: functional; conditions: HT-29, 48 h
[49] = tested on: K562; assay: Growth inhibition of human K562 cells after 48 hrs by sulforhodamine B assay; assay type: functional; conditions: K562, 48 h
[50] = tested on: HOP-62; assay: Growth inhibition of human HOP62 cells after 48 hrs by sulforhodamine B assay; assay type: functional; conditions: HOP-62, 48 h
[51] = tested on: SK-MEL-28; assay: Growth inhibition of human SK-MEL-28 cells after 48 hrs by sulforhodamine B assay; assay type: functional; conditions: SK-MEL-28, 48 h
[52] = tested on: HCT-15; assay: Growth inhibition of human HCT15 cells after 48 hrs by sulforhodamine B assay; assay type: functional; conditions: HCT-15, 48 h
[53] = tested on: SF-295; assay: Growth inhibition of human SF295 cells after 48 hrs by sulforhodamine B assay; assay type: functional; conditions: SF-295, 48 h
[54] = tested on: A549; assay: Growth inhibition of human A549/ATCC cells after 48 hrs by sulforhodamine B assay; assay type: functional; conditions: A549, 48 h
[55] = tested on: BT-549; assay: Growth inhibition of human BT549 cells after 48 hrs by sulforhodamine B assay; assay type: functional; conditions: BT-549, 48 h
[56] = tested on: HOP-92; assay: Growth inhibition of human HOP92 cells after 48 hrs by sulforhodamine B assay; assay type: functional; conditions: HOP-92, 48 h
[57] = Inhibition of sheep brain tubulin polymerization using DAPI by fluorimetry; parameters: species or system Ovis aries

CN(C)Cc1cn(C(=O)N2c3ccccc3Sc3ccccc32)c2ccccc12
GI50 [1]: 1970 nM
GI50 [2]: 1980 nM
GI50 [3]: 1840 nM
GI50 [4]: 2000 nM
GI50 [5]: 1650 nM
GI50 [6]: 1240 nM
GI50 [7]: 1800 nM
GI50 [8]: 1760 nM
GI50 [9]: 1850 nM
GI50 [10]: 2220 nM
GI50 [11]: 1210 nM
GI50 [12]: 2040 nM
GI50 [13]: 2920 nM
GI50 [14]: 2080 nM
GI50 [15]: 1750 nM
GI50 [16]: 1620 nM
GI50 [17]: 1170 nM
GI50 [18]: 1780 nM
GI50 [19]: 2130 nM
GI50 [20]: 2020 nM
GI50 [21]: 1610 nM
GI50 [22]: 2230 nM
GI50 [23]: 1160 nM
GI50 [24]: 1790 nM
GI50 [25]: 1840 nM
GI50 [26]: 4850 nM
GI50 [27]: 2040 nM
GI50 [28]: 1730 nM
GI50 [29]: 1980 nM
GI50 [30]: 1890 nM
GI50 [31]: 1740 nM
GI50 [32]: 1850 nM
GI50 [33]: 1990 nM
GI50 [34]: 1740 nM
GI50 [35]: 1500 nM
GI50 [36]: 2530 nM
GI50 [37]: 1600 nM
GI50 [38]: 1720 nM
GI50 [39]: 1530 nM
GI50 [40]: 1500 nM
inhibition [41]: 9%
GI50 [42]: 1640 nM
GI50 [43]: 1730 nM
GI50 [44]: 1950 nM
GI50 [45]: 1600 nM
GI50 [46]: 1900 nM
GI50 [47]: 1810 nM
GI50 [48]: 1790 nM
GI50 [49]: 1950 nM
GI50 [50]: 1680 nM
GI50 [51]: 1720 nM
GI50 [52]: 1700 nM
GI50 [53]: 1750 nM
GI50 [54]: 1680 nM
GI50 [55]: 2960 nM

COc1cc2cc(C(=O)N3c4ccccc4Sc4ccccc43)[nH]c2cc1OC
GI50 [1]: 599 nM
GI50 [2]: 679 nM
GI50 [3]: 418 nM
GI50 [4]: 589 nM
GI50 [5]: 392 nM
GI50 [6]: 215 nM
GI50 [7]: 3310 nM
GI50 [8]: 303 nM
GI50 [9]: 595 nM
GI50 [10]: 387 nM
GI50 [11]: 363 nM
GI50 [12]: 1750 nM
GI50 [13]: 10200 nM
GI50 [14]: 1960 nM
GI50 [15]: 941 nM
GI50 [16]: 435 nM
GI50 [17]: 184 nM
GI50 [18]: 1630 nM
GI50 [19]: 1540 nM
GI50 [20]: 723 nM
GI50 [22]: 873 nM
GI50 [23]: 204 nM
GI50 [24]: 368 nM
GI50 [25]: 902 nM
GI50 [26]: 7140 nM
GI50 [27]: 804 nM
GI50 [28]: 8310 nM
GI50 [29]: 3860 nM
GI50 [30]: 620 nM
GI50 [56]: 54 nM
GI50 [31]: 537 nM
GI50 [32]: 23400 nM
GI50 [33]: 503 nM
GI50 [34]: 184 nM
GI50 [35]: 2590 nM
GI50 [36]: 571 nM
GI50 [37]: 300 nM
GI50 [38]: 529 nM
GI50 [39]: 573 nM
GI50 [40]: 611 nM
inhibition [41]: 36%
GI50 [42]: 517 nM
GI50 [43]: 1880 nM
GI50 [44]: 366 nM
GI50 [46]: 335 nM
GI50 [47]: 396 nM
GI50 [48]: 395 nM
GI50 [49]: 437 nM
GI50 [50]: 838 nM
GI50 [51]: 829 nM
GI50 [52]: 442 nM
GI50 [53]: 329 nM
GI50 [54]: 656 nM
GI50 [55]: 6060 nM

COc1cc([C@@H]2c3cc4c(cc3C[C@H]3COC(=O)[C@@H]32)OCO4)cc(OC)c1OC [DESOXYPODOPHYLLOTOXIN]
IC50 [57]: 1760 nM
inhibition [41]: 100%
